Entries after “also recorded” stand apart in the source; their conditions may differ.
Tests used:
[1] = cited from earlier work
[2] = target: T1, CAII (Homo sapiens, UniProt P00918); test: CAII esterase inhibition assay with 4-nitrophenyl acetate (pNPA) as colorimetric substrate; conditions: at physiologically relevant concentrations
[3] = test system: mouse hearts; test: Oxygen consumption by Langendorff-perfused mouse hearts; conditions: 1 mM inhibitor, ex vivo Langendorff perfusion, C57BL6 mouse hearts, O2 in minus O2 out vs control solution
Description: To test the effects of carbonic anhydrase inhibitors on oxygen consumption, Langendorff perfusion experiments were conducted using mouse hearts. Hearts were isolated from ˜12-week-old C57BL6 male mice and perfused ex vivo in Langendorff mode (retrograde perfusion via the aorta) with perfusate containing Krebs-Henseleit electrolytes with 2 mM acetate. The perfusate was constantly oxygenated with an oxygenator. […] The inhibitor solution was oxygenated by bubbling with 95% O2/5% CO2 mixed gas prior to adding.
Dissolved oxygen concentration was measured in the perfusate, or in the carbonic anhydrase inhibitor solution, using an Oxygraph+ system. […] In each figure, “O2 in” refers to the oxygen concentration in the perfusate prior to entering the heart or in the carbonic anhydrase inhibitor solution, and “O2 out” refers to the oxygen concentration in the perfusate after it passes through the heart.
Oxygen consumption was measured as the difference between the O2 in measurements and the O2 out measurements, and results are shown in FIG. 32.

[4] = target: T1, CAII; conditions: CAII binding; cited from earlier work

Question: For `CC(=O)Oc1ccccc1C(=O)O` [Aspirin, Acetylsalicylic acid], which half-life in blood [1] is on record?
Answer: The half-life in blood was roughly 15 min.

Question: Which “inhibition of CAII” value [2] does the source give for `O=C(O)c1ccccc1O` [SA, salicylic acid] here?
Answer: Its value is “completely inhibited CAII”.

Question: With `CCN[C@H]1C[C@H](C)S(=O)(=O)c2sc(S(N)(=O)=O)cc21` [dorzolamide] as the compound, how does the “oxygen consumption by the heart” value [3] read?
Answer: Its value is “increase in oxygen consumption; also recorded: increased oxygen consumption”.

Question: Which “specificity toward copper over zinc” value [4] does the source give for `[Cu]` [copper] here?
Answer: Its value is 50 fold.

Question: Which “oxygen consumption by the heart” value [3] does the source give for `CC(=O)Nc1nnc(S(N)(=O)=O)s1` [acetazolamide] here?
Answer: The value was “increase in oxygen consumption; also recorded: increased oxygen consumption”.
